biological target: Huntingtin (Homo sapiens, UniProt P42858); test: Inhibition of Huntingtin protein (unknown origin) incubated for overnight in presence of MW1/MAB2166 monoclonal antibody by MSD assay
Sequence (P42858 whole entry): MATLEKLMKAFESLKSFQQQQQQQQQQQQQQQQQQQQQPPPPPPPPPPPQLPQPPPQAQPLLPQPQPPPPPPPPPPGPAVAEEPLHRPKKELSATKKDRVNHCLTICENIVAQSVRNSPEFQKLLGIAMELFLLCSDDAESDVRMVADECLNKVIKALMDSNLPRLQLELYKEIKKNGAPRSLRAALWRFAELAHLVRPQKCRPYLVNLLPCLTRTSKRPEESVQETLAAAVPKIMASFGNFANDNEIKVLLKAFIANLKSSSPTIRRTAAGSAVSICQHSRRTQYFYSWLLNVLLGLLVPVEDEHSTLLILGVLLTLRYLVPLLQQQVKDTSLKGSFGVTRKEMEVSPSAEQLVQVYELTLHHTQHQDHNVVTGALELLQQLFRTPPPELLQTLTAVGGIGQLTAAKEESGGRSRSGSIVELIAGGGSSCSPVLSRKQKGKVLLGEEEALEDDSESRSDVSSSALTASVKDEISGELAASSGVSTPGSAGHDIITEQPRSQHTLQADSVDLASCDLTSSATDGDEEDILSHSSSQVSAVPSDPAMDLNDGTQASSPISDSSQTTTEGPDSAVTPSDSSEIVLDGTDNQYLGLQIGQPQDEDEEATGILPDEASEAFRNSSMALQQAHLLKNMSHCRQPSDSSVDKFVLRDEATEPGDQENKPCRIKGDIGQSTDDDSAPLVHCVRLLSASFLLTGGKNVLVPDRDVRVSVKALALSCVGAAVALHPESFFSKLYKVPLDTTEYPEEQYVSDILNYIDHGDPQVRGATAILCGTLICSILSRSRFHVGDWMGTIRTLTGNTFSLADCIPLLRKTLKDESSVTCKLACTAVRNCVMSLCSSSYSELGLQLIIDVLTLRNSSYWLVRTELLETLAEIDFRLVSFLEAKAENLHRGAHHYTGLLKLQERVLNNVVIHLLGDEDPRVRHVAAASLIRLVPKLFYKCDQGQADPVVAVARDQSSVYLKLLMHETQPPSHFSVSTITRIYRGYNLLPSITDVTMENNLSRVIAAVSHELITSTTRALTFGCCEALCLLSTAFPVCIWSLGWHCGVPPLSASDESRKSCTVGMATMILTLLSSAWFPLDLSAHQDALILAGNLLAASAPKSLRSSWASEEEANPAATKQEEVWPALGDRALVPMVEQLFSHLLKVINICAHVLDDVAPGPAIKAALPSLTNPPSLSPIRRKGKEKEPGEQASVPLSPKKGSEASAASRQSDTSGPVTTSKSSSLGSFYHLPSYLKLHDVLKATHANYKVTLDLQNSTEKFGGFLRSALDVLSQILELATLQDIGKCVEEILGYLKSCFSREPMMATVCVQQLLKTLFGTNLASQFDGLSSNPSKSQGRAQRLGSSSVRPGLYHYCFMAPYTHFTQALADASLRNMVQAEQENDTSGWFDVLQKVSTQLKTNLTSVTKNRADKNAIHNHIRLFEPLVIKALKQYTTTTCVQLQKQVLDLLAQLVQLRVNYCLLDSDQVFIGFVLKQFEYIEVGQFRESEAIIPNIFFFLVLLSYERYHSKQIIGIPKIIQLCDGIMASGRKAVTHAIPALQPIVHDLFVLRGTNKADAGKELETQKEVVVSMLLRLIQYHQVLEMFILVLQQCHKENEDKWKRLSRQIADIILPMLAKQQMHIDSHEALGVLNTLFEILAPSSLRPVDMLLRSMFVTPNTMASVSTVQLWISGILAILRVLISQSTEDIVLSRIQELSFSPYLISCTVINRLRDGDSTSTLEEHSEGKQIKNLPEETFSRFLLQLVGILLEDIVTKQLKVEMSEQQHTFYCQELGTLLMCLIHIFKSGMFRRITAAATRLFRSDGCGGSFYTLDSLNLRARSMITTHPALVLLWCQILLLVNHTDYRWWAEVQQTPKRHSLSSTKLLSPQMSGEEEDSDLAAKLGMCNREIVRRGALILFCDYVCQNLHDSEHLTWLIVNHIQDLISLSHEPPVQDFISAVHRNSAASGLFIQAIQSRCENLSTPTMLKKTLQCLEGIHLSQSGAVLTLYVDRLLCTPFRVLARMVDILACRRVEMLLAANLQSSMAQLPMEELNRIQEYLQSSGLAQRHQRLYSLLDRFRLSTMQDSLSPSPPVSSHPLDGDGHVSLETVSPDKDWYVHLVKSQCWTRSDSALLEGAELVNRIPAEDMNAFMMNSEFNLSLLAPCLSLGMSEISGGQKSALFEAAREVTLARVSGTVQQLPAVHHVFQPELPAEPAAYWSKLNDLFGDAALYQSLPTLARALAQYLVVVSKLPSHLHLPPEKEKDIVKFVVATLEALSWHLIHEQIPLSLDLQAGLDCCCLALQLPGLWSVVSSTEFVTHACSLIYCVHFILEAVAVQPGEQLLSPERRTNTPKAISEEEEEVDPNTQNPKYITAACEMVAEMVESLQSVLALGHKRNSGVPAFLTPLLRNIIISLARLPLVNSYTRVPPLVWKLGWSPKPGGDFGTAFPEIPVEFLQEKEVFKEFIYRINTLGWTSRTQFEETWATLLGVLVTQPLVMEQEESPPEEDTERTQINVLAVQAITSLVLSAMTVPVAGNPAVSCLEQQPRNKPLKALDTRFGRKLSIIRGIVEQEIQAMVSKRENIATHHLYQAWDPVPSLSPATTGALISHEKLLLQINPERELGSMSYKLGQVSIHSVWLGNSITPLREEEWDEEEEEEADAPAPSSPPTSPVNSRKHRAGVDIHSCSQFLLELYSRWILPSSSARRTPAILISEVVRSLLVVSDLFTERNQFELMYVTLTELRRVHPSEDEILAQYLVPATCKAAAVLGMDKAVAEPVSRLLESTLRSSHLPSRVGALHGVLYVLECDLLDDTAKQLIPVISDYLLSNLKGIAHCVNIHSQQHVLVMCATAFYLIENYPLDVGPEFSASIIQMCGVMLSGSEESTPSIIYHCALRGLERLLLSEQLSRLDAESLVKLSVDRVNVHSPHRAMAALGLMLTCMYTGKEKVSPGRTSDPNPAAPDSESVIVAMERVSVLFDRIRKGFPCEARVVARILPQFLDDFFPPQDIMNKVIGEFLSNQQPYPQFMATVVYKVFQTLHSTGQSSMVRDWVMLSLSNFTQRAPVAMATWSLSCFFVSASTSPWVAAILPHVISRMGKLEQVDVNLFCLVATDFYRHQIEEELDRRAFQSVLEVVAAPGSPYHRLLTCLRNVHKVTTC

| SMILES | IC50 |
| --- | --- |
| Cc1cn2nc(-c3cn4cc(C5CCNCC5)nc4s3)cc(C)c2n1 | ≤ 0.1 µM |
| CN(c1nc2sc(-c3ncc(-c4cn[nH]c4)nn3)nc2s1)C1CC(C)(C)NC(C)(C)C1 | ≤ 0.1 µM |
| Cn1cc2cc(-c3nn4cc(C5CCNCC5)nc4s3)cc(C#N)c2n1 | ≤ 0.1 µM |
| CN(c1nc2sc(-c3cnc(-c4cn[nH]c4)c4[nH]ccc34)nc2s1)C1CCNCC1 | ≤ 0.1 µM |
| C[C@H]1C[C@H](Oc2nc3sc(-c4ncc(-c5nnn(C)n5)c5cc[nH]c45)nc3s2)CCN1 | ≤ 0.1 µM |
| CN(c1nc2sc(-c3ncc(-c4cn[nH]c4)cc3O)nc2s1)C1CC(C)(C)NC(C)(C)C1 | ≤ 0.1 µM |

Reference: ChEMBL document CHEMBL4665902, “Novel Heteroaryl Compounds for Treating Huntington's Disease” (ACS Med Chem Lett, 2020)
